Experimental data published in patent US6667025B2 (Mitsubishi Pharma Corporation, priority 1997, dated 2003).

Tests used:
[1] = test system: popliteal lymph node of (LEW×BN) F1 rats injected with LEW spleen cells; assay: Local GvHR, enlargement of popliteal lymph node; type: in vivo, rat
[2] = test system: renal allograft, mongrel donors and beagle recipients; assay: Canine renal allograft survival; type: in vivo; settings: 5 mg/kg
Method: Kidneys from mongrel donor dogs were transplanted into beagle dogs in the right iliac fossa, and the recipient dogs were then nephrectomized bilaterally. Levels of serum creatine and blood urea nitrogen were measured to monitor survival. Graft rejection was defined as the day when either serum creatine levels increased to more than 10.0 mg/dL or blood urea nitrogen levels elevated to more than 200 mg/dL. […] The survival curves are illustrated in FIG. 6.

[3] = test system: IL-2 mRNA in alloantigen-stimulated splenic T cells; assay: IL-2 mRNA expression in allogeneic mixed lymphocyte culture (PCR); type: cell-based, rat; settings: 48 hours
Method: The housekeeping gene HPRT was used as an internal control in order to compare levels of IL-2 mRNA levels relative to the HPRT mRNA levels, as detailed below.
Allogeneic mixed lymphocyte culture was carried out by using nylon-nonadherent spleen cells of F344 rat (RT1^1v1) as responder cells and the spleen cells of WKAH rat (RT1^k) pretreated with 40 μg/ml of mitomycin C for 30 min as stimulator cells. […] After culturing for 48 hours, the cells were recovered by centrifugation. The expression of IL-2 mRNA in the cells was determined by a polymerase chain reaction (PCR) method.
Total RNA was reverse transcribed in […] of buffer solution containing 10 mmol/L Tris-HCl (pH 8.3),50 mM KCl, 5 mM MgCl2, 1 mM each dNTP (dATP, dGTP, dTTP and dCTP), 60 U RNase inhibitor (Takara Ltd. Tokyo, Japan), 15 U avian myelobalastosis virus reverse transcriptase (Takara Ltd.) and 150 pmol random 9-mers at 30° C. for 10 min and 42° C. for 30 min. Primer sequences for IL-2 and hypoxanthine-guanine phosphoribosyltransferase (HPRT) were taken from the previous report (44).
The length in base pairs of the PCR products of IL-2 and HPRT are 351 and 608 bp respectively. […] Fluorescence intensity of the specific bands was visualized by fluorescence image analyzer (FLUOR IMAGER 575®, Molecular Dynamics).

[4] = test system: calcein-prelabeled lymphocytes in lymphoid tissues; assay: Lymphocyte homing of calcein-prelabeled lymphocytes; type: in vivo, rat; settings: oral 1 mg/kg
Method: The lymphocytes prepared from mesenteric lymph nodes and axillary lymph nodes in 5 to 6-week old F344 rats were pre-labeled with calcein-AM (Molecular Probes) at 1 μmol/L on ice for 30 min. After the labeling with calcein-AM, the lymphocytes were washed three times with ice-cold saline. Thereafter, the calcein-prelabeled lymphocytes at 5×10^7 cells were transfused through the tail vein to sex and age-matched F344 rats. FTY720 at 0.1 or 1 mg/kg was orally administered 2.5 hours before the transfusion. After 30 min. of the transfusion, mesenteric lymph nodes, axillary lymph nodes, Peyer's patches, and spleen were removed and the numbers of calcein prelabeled lymphocytes in these tissues were measured using flow cytometer (EPICS-XL). To examine the influence of antibodies against lymphocyte homing receptors, the calcein-prelabeled lymphocytes were treated with 60 μg/ml of either mouse anti-rat CD49d Mab (clone TA-2) (49), hamster anti-rat CD62L Mab (clone HRL3) (50), mouse anti-rat CD11a Mab (clone WT.1) (51), or control Ig at 4° C. for 30 min. Anti-rat lymphocyte-homing receptor Mabs and control Ig were purchased from Seikagaku-kougyou Ltd. or Pharmingen, respectively.

## CCCCCCCCc1ccc(CCC(N)(CO)CO)cc1.Cl [FTY720, 2-amino-2[2-(4-octylphenyl)ethyl]propane-1,3-diol hydrochloride]
[1]; local GvHR in rats
  immunosuppressive potency relative to CsA: 30 fold
[1]; oral, local GvHR
  oral dose that significantly inhibited enlargement of popliteal lymph node: ≥ 0.1 mg/kg
[2]
  MST of renal allograft: 12.0 days
[3]
  concentration that inhibited IL-2 mRNA expression: > 1000 nM
[4]
  homing of calcein-prelabeled lymphocytes to mesenteric lymph nodes and Peyer's patches: induced lymphocyte homing
